Source: patent US20060141587A1, “Process for the preparation of L-3, 4-dihydroxyphenylalanine by aerobic fermentation of a microorganism” (DSM IP Assets B.V., priority 2002, published 2006)

Legend:
[1] = Stability of L-dopa in fermentation broth adjusted to different pH, stored at room temperature (HPLC); assay type: physicochemical; conditions: for L-dopa concentration, fermentation broth at pH 4.5 (sample 4): pH 4.5, room temperature; for L-dopa concentration, fermentation broth at pH 4.5 (sample 4) / L-dopa concentration, fermentation broth at pH 5.5 (sample 3) / L-dopa concentration, fermentation broth at pH 6.5 (sample 2) / L-dopa concentration, fermentation broth at pH 7.5 (sample 1): broth at pH 4.5 related to 10; for L-dopa concentration, fermentation broth at pH 5.5 (sample 3): pH 5.5, room temperature; for L-dopa concentration, fermentation broth at pH 6.5 (sample 2): pH 6.5, room temperature; for L-dopa concentration, fermentation broth at pH 7.5 (sample 1): pH 7.5, room temperature
Procedure: (§1) To perform the HPLC analysis, the HPLC 1100 system of Aegilent (Waldbronn, Germany) with a Diode Array Detector was used. The compounds were measured at a wavelength of 200 nm. A Nucleosil-120-5-C18 column (250×4 mm) from Macherey-Nagel was used as the solid phase. The column was eluted using a gradient starting with eluent A (10 mM H3PO4) and eluent B (100% acetonitril). Gradient: 0 min 2% B, 25 min up to 90% B, 27 min to 30 min 2% B. The elution rate was set at 1.2 ml/min, the column temperature was set at 40° C.
A sample of the fermentation broth in which L-dopa is present, prepared as described in example 6, which had been adjusted to pH 7.5 (sample 1), pH 6.5 (sample 2), pH 5.5 (sample 3) and pH 4.5 (sample 4) was used. The samples 1, 2, 3 and 4 were stored at room temperature for 600 hours and L-dopa concentrations were determined at several points in time (up to 600 hours). L-dopa concentrations were determined by HPLC analysis as a function of time (see: Table 4) with the […], i.e. fermentation broth at pH 4.5, related to 10.

[2] = Stability of L-dopa during fed-batch fermentation with and without pH-shift; assay type: physicochemical, Escherichia coli
Procedure: Cultivations in a fermentor were conducted in a 2.0 L bioreactor (Labfors, Infors; Switzerland) with 10% inoculation; which was cultivated at 33° C. The cultivation started at pH 6.7. The mineral fermentation medium (see composition above) was directly sterilized in the bioreactor together with the calibrated pH- and Oxygen-sensors.
pH was controlled by 17.5% NH4OH (1:2 diluted) and a 5 N KOH solution. A separate glucose feed (500 g·^−1) was started when the OD620nm was higher than 5. At OD620nm 10, which was reached after about 14 hours Isopropyl-beta-D-thiogalactopyranoside (IPTG) was added to a final concentration of 0.1 mM. […]
Biomass (OD620nm) and L-dopa concentrations were determined by HPLC analysis (see example 5 for HPLC conditions) as a function of time (see: Table 1). The L-dopa concentration at 43 hours was related to 10.
A fermentation was performed describes as in example 6 with the following differences:
At OD620nm 5 (reached after 7 hours) IPTG was added.
The L-dopa concentration reached after 32 hours was related to 10.

[3] = Storage stability of L-dopa in fermentation broth, extracted water phase and reextraction medium (reactive extraction, HPLC); assay type: physicochemical; conditions: for change of L-dopa concentration during storage: room temperature, up to 600 h; for relative L-dopa concentration of untreated fermentation broth (sample A, pH = 7.5): pH 7.5, stored at room temperature; for relative L-dopa concentration of water phase of fermentation broth extracted by kerosene/D2EHPA (sample B, pH acidic): stored at room temperature; for relative L-dopa concentration of re-extracted organic phase by KCl (sample C, pH = 6.3): pH 6.3, stored at room temperature
Procedure: as §1
A sample of the fermentation broth in which L-dopa is present, prepared as described in example 6, which had been adjusted to pH 7,5 (sample A), was used. 5 ml kerosene containing 10% D2EHPA (pH acidic) was mixed vigorously with the same volume of sample A for 30 seconds on a vortex mixer. After separation of the two phases (about 10 minutes) the water phase containing L-dopa, the extraction medium (sample B) was stored at room temperature. L-dopa dissolved in the organic phase was reextracted by mixing 2 ml of the organic phase with 1 ml of 1 M KCl (pH=6.3) by shaking vigorously for 30s. After separation of the two phases (about 10 minutes), the water phase containing L-dopa, the reextraction medium (sample C) was stored at room temperature. The samples A, B and C were stored at room temperature for 600 hours and L-dopa concentrations were determined at several points in time (up to 600 hours). L-dopa concentrations were determined by HPLC analysis as a function of time (see: Table 3).

N[C@@H](Cc1ccc(O)c(O)c1)C(=O)O [L-dopa, L-3,4-dihydroxyphenylalanine]
L-dopa concentration, fermentation broth at pH 4.5 (sample 4) ([1]; 24 h): 10
L-dopa concentration, fermentation broth at pH 4.5 (sample 4) ([1]; 96 h): 10
L-dopa concentration, fermentation broth at pH 4.5 (sample 4) ([1]; 168 h): 10
L-dopa concentration, fermentation broth at pH 4.5 (sample 4) ([1]; 336 h): 10
L-dopa concentration, fermentation broth at pH 4.5 (sample 4) ([1]; 408 h): 10
L-dopa concentration, fermentation broth at pH 4.5 (sample 4) ([1]; 504 h): 10
L-dopa concentration, fermentation broth at pH 4.5 (sample 4) ([1]; 600 h): 10
L-dopa concentration, fermentation broth at pH 5.5 (sample 3) ([1]; 24 h): 9
L-dopa concentration, fermentation broth at pH 5.5 (sample 3) ([1]; 96 h): 9
L-dopa concentration, fermentation broth at pH 5.5 (sample 3) ([1]; 168 h): 9
L-dopa concentration, fermentation broth at pH 5.5 (sample 3) ([1]; 336 h): 9
L-dopa concentration, fermentation broth at pH 5.5 (sample 3) ([1]; 408 h): 9
L-dopa concentration, fermentation broth at pH 5.5 (sample 3) ([1]; 504 h): 8
L-dopa concentration, fermentation broth at pH 5.5 (sample 3) ([1]; 600 h): 8
L-dopa concentration, fermentation broth at pH 6.5 (sample 2) ([1]; 24 h): 7
L-dopa concentration, fermentation broth at pH 6.5 (sample 2) ([1]; 96 h): 7
L-dopa concentration, fermentation broth at pH 6.5 (sample 2) ([1]; 168 h): 7
L-dopa concentration, fermentation broth at pH 6.5 (sample 2) ([1]; 336 h): 5
L-dopa concentration, fermentation broth at pH 6.5 (sample 2) ([1]; 408 h): 5
L-dopa concentration, fermentation broth at pH 6.5 (sample 2) ([1]; 504 h): 4
L-dopa concentration, fermentation broth at pH 6.5 (sample 2) ([1]; 600 h): 4
L-dopa concentration, fermentation broth at pH 7.5 (sample 1) ([1]; 24 h): 6
L-dopa concentration, fermentation broth at pH 7.5 (sample 1) ([1]; 96 h): 6
L-dopa concentration, fermentation broth at pH 7.5 (sample 1) ([1]; 168 h): 5
L-dopa concentration, fermentation broth at pH 7.5 (sample 1) ([1]; 336 h): 4
L-dopa concentration, fermentation broth at pH 7.5 (sample 1) ([1]; 408 h): 3
L-dopa concentration, fermentation broth at pH 7.5 (sample 1) ([1]; 504 h): 3
L-dopa concentration, fermentation broth at pH 7.5 (sample 1) ([1]; 600 h): 2
effect of pH of the fermentation broth on stability of L-dopa ([1]; pH 7.5 to 4.5, room temperature, up to 600 h): lower pH values of the fermentation broth increase the stability of L-dopa
stability of L-dopa in the fermentation ([2]; fermentation at pH 6.7, no pH-shift): less stable
stability of L-dopa in the fermentation ([2]; fermentation with pH-shift from pH 6.7 to pH 5.8): stable
change of L-dopa concentration during storage ([3]; after extraction of the broth with kerosene/D2EHPA (sample B, acidic pH)): decrease of concentration of L-dopa was nearly prevented
change of L-dopa concentration during storage ([3]; after re-extraction with KCl (sample C, pH 6.3)): no decrease of L-dopa concentration was observed
change of L-dopa concentration during storage ([3]; fermentation broth without kerosene/D2EHPA extraction (sample A, pH 7.5)): decreases during the storage time
relative L-dopa concentration of untreated fermentation broth (sample A, pH = 7.5) ([3]; 24 h): 0.7
relative L-dopa concentration of untreated fermentation broth (sample A, pH = 7.5) ([3]; 96 h): 0.7
relative L-dopa concentration of untreated fermentation broth (sample A, pH = 7.5) ([3]; 168 h): 0.6
relative L-dopa concentration of untreated fermentation broth (sample A, pH = 7.5) ([3]; 336 h): 0.5
relative L-dopa concentration of untreated fermentation broth (sample A, pH = 7.5) ([3]; 408 h): 0.4
relative L-dopa concentration of untreated fermentation broth (sample A, pH = 7.5) ([3]; 504 h): 0.4
relative L-dopa concentration of untreated fermentation broth (sample A, pH = 7.5) ([3]; 600 h): 0.3
relative L-dopa concentration of water phase of fermentation broth extracted by kerosene/D2EHPA (sample B, pH acidic) ([3]; 24 h): 0.8
relative L-dopa concentration of water phase of fermentation broth extracted by kerosene/D2EHPA (sample B, pH acidic) ([3]; 96 h): 0.7
relative L-dopa concentration of water phase of fermentation broth extracted by kerosene/D2EHPA (sample B, pH acidic) ([3]; 168 h): 0.7
relative L-dopa concentration of water phase of fermentation broth extracted by kerosene/D2EHPA (sample B, pH acidic) ([3]; 336 h): 0.8
relative L-dopa concentration of water phase of fermentation broth extracted by kerosene/D2EHPA (sample B, pH acidic) ([3]; 408 h): 0.7
relative L-dopa concentration of water phase of fermentation broth extracted by kerosene/D2EHPA (sample B, pH acidic) ([3]; 504 h): 0.8
relative L-dopa concentration of water phase of fermentation broth extracted by kerosene/D2EHPA (sample B, pH acidic) ([3]; 600 h): 0.7
relative L-dopa concentration of re-extracted organic phase by KCl (sample C, pH = 6.3) ([3]; 24 h): 0.3
relative L-dopa concentration of re-extracted organic phase by KCl (sample C, pH = 6.3) ([3]; 96 h): 0.3
relative L-dopa concentration of re-extracted organic phase by KCl (sample C, pH = 6.3) ([3]; 168 h): 0.3
relative L-dopa concentration of re-extracted organic phase by KCl (sample C, pH = 6.3) ([3]; 336 h): 0.4
relative L-dopa concentration of re-extracted organic phase by KCl (sample C, pH = 6.3) ([3]; 408 h): 0.4
relative L-dopa concentration of re-extracted organic phase by KCl (sample C, pH = 6.3) ([3]; 504 h): 0.4
relative L-dopa concentration of re-extracted organic phase by KCl (sample C, pH = 6.3) ([3]; 600 h): 0.4
